Patent US10167295B2 (priority 2013, dated 2019)
Entries after “also recorded” stand apart in the source; their conditions may differ. Counter-ions that a name gives are not always drawn. Like-named read-outs stand apart in the source and are kept apart here.

Key:
[1] = tested on: patients with post-operative pain; conditions: cited from earlier work; for analgesia in earlier clinical studies (in words): patients with post-operative pain, literature of the applicants
[2] = target: T1, σ2 receptor (Homo sapiens, UniProt Q5BJF2); assay type: binding; conditions: for inhibition at 10 µM: read-out: Inhibition (%) Sigma2 (σ2)
T1 construct: MDS Pharma Services (contract laboratory that ran the assay)

[3] = target: T2, NOP (Homo sapiens, UniProt P41146); assay type: binding; set-up: MDS Pharma Services (contract laboratory that ran the assay); conditions: for binding to the NOP receptor (in words): 10 μM; for inhibition at 10 µM: read-out: Inhibition (%) Nociceptin/orphanin F/Q (NOP)
[4] = tested on: patients with post-operative pain; test: Clinical studies of analgesia in patients with post-operative pain; assay type: in vivo, human; conditions: for sex difference in analgesia: women vs men, post-operative pain (FIG. 8, 9)
[5] = target: T3, DOR (Homo sapiens, UniProt P41143); test: biochemical; assay type: binding
[6] = target: T4, MOR (Homo sapiens, UniProt P35372); test: biochemical; assay type: binding
[7] = target: KOR (Homo sapiens, UniProt P41145); test: biochemical; assay type: binding
[8] = target: T4, MOR; test: biochemical; assay type: binding; remark: listed apart in the source
[9] = target: T3, DOR; test: biochemical; assay type: binding; remark: listed apart in the source
[10] = target: T2, NOP; assay type: cell-based

T4 sequence (P35372 whole entry): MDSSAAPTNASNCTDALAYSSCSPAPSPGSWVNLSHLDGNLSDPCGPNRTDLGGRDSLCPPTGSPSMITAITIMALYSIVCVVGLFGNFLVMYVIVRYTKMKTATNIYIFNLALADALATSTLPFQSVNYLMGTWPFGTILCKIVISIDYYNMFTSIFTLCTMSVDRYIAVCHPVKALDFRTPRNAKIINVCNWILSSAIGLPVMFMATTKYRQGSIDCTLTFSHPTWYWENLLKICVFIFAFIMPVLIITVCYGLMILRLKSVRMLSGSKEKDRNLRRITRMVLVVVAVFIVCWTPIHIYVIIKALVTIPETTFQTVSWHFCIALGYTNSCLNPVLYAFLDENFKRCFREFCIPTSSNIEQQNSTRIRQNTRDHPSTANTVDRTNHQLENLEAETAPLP
T3 sequence (P41143 whole entry): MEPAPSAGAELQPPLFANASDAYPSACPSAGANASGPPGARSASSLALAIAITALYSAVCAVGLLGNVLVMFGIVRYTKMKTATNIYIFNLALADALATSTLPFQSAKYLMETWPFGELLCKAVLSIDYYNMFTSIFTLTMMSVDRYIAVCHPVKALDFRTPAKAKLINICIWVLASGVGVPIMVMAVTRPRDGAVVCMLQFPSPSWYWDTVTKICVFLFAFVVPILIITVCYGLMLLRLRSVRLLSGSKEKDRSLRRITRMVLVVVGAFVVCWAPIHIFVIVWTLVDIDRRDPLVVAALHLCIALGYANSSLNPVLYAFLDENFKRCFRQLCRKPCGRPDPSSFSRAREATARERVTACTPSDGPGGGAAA
T2 sequence (P41146 whole entry): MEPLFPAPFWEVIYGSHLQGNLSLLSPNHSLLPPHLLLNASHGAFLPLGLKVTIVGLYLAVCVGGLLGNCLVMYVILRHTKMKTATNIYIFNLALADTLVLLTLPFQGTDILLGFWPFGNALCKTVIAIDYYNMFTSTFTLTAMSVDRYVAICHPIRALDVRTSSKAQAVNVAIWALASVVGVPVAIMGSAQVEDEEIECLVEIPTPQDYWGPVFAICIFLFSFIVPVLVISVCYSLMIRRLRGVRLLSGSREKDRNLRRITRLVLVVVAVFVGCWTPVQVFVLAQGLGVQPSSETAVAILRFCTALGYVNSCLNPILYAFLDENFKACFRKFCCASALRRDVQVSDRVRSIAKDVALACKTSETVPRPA
T1 sequence (Q5BJF2 whole entry, species assumed): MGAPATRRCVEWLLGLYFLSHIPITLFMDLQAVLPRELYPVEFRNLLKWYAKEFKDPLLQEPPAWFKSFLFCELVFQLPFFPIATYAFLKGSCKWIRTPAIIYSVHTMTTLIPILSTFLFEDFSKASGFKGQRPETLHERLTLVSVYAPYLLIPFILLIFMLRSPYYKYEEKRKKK
Chain of KOR (P41145 whole entry): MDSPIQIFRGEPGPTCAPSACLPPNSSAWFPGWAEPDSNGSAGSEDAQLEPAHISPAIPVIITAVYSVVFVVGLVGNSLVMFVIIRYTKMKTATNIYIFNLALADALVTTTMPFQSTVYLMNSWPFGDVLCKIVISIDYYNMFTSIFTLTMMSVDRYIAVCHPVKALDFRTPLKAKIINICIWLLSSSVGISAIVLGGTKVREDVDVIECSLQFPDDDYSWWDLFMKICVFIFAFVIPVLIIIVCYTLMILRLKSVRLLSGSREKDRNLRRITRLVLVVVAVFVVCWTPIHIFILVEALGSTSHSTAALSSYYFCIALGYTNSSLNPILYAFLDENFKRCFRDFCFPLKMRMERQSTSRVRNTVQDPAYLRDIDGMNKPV

O=C(CCCN1CCC(O)(c2ccc(Cl)cc2)CC1)c1ccc(F)cc1 [haloperidol]
analgesia in earlier clinical studies (in words) [1]: enhanced the analgesic effect of nalbuphine

Oc1ccc2c3c1O[C@H]1[C@@H](O)CC[C@@]4(O)[C@@H](C2)N(CC2CCC2)CC[C@]314 [Nalbuphine, Nalbuphine hydrochloride]
inhibition at 10 µM [2]: 15%
binding to the NOP receptor (in words) ([3]; hydrochloride): binds to NOP receptors
inhibition at 10 µM [3]: 12%
time by which men reported increasing pain (anti-analgesia) ([1]; men, placebo controlled study (Gear 1999)): ~90 min
analgesia in earlier clinical studies (in words) [1]: worse pain than those receiving placebo
sex difference in analgesia ([4]; hydrochloride): significantly greater analgesia in females than in males
sex difference in analgesia ([4]; listed as nalbuphine, hydrochloride): significantly great analgesia in women than in men

CN(C(=O)/C=C/c1ccoc1)[C@@H]1CCC2(O)C3Cc4ccc(O)c5c4[C@@]2(CCN3CC2CC2)[C@H]1O5 (some centres unmarked) [compound 27035, TRK-820 HCl]
DOR [5]: 95
inhibition at 10 µM ([5]; read-out: DOR mean % inhibition): 95.3%
MOR [6]: 94
inhibition at 10 µM ([6]; read-out: MOR mean % inhibition): 93.8%
KOR [7]: 91
inhibition at 10 µM ([7]; read-out: KOR mean % inhibition): 90.5%
Ki [8]: 1.1 nM
Ki [9]: 42 nM
NOP Tango Agonist [10]: 3.5

NCC(CC(=O)O)c1ccc(Cl)cc1 (centres unmarked) [baclofen]
effect on the analgesic effect of pentazocine ([1]; oral, from three days prior to surgery, pentazocine 30 mg i.v. (Gordon 1995)): not significantly different from that of placebo

Oc1ccc2c(c1)[C@@]13CCCC[C@@]1(O)[C@@H](C2)N(CC1CCC1)CC3 [Butorphanol]
sex difference in analgesia [4]: significantly great analgesia in women than in men; also recorded: significantly greater analgesia in females than in males

CN(C)CCCN1c2ccccc2Sc2ccc(Cl)cc21 [chlorpromazine]
analgesia in earlier clinical studies (in words) [1]: enhanced the analgesic effect of nalbuphine

CC(C)=CCN1CCC2(C)c3cc(O)ccc3CC1C2C.CC(O)C(=O)O (centres unmarked) [Pentazocine, Pentazocine lactate]
inhibition at 10 µM [2]: 81%
binding to the NOP receptor (in words) [3]: binds to NOP receptors
inhibition at 10 µM [3]: 24%
sex difference in analgesia [4]: significantly great analgesia in women than in men; also recorded: significant difference in analgesia experience by females and males

C=CCN1CC[C@]23c4c5ccc(O)c4O[C@H]2C(=O)CC[C@@]3(O)[C@H]1C5 [Naloxone, naloxone hydrochloride]
binding to the σ2 receptor (in words) ([2]; 10 μM): does not bind to the σ2 receptor
inhibition at 10 µM [2]: -2%
analgesia in earlier clinical studies (in words) [1]: blocks anti-analgesia and produces enhanced and prolonged analgesia
effect on nalbuphine anti-analgesia in males ([4]; naloxone 0.4 mg in combination with nalbuphine, men (FIG. 10 left)): abolished the anti-analgesic effect of nalbuphine in males resulting in significant analgesia
effect on nalbuphine analgesia in females ([4]; naloxone 0.4 mg in combination with nalbuphine, women (FIG. 10 right)): enhanced nalbuphine analgesia in females
